# According to ChEMBL document CHEMBL2069187, “2-Amino-1,3,4-thiadiazole derivative (FABT) inhibits the extracellular signal-regulated kinase pathway and induces cell cycle arrest in human non-small lung carcinoma cells” (Bioorg Med Chem Lett, 2012):
# Calls of active or inactive are those of the source. No cut-off for these calls is given here.
# Key:
# [1] = test system: Rhabdomyosarcoma cell; assay: Antiproliferative activity against human rhabdomyosarcoma cells; type: functional, cell-based
# [2] = test system: Medulloblastoma cell; assay: Antiproliferative activity against human medulloblastoma cells; type: functional
# [3] = species: Homo sapiens; assay: Antiproliferative activity against human neuroblastoma cells; type: functional, cell-based
# [4] = test system: Glioma cell; assay: Antiproliferative activity against human glioma cells; type: functional, cell-based
# [5] = species: Homo sapiens; assay: Antiproliferative activity against human colon adenocarcinoma cells; type: functional
# [6] = species: Homo sapiens; assay: Antiproliferative activity against human lung adenocarcinoma cells; type: functional
# [7] = Antiproliferative activity against human astrocytes; type: cell-based; conditions: astrocyte
# [8] = test system: Hepatocyte; assay: Antiproliferative activity against human hepatocytes; type: cell-based
# [9] = Antiproliferative activity against human skin fibroblast
# [10] = biological target: T1, Mitogen-activated protein kinase; ERK1/ERK2 (Homo sapiens) (UniProt P27361+P28482); assay: Inhibition of ERK1/2 phosphorylation in human A549 cells at 25 uM by Western blot analysis; type: cell-based; conditions: TDE = time-dependent effect
# [11] = biological target: T1, Mitogen-activated protein kinase; ERK1/ERK2 (Homo sapiens); assay: Inhibition of ERK1/2 phosphorylation in human A549 cells after 24 hrs by Western blot analysis; type: cell-based
# [12] = biological target: T1, Mitogen-activated protein kinase; ERK1/ERK2 (Homo sapiens); assay: Inhibition of ERK1/2 phosphorylation in human A549 cells assessed as peak effect time by Western blot analysis; type: cell-based
# [13] = biological target: Dual specificity mitogen-activated protein kinase kinase; MEK1/2 (Homo sapiens) (UniProt P36507+Q02750); assay: Inhibition of MEK1/2 phosphorylation in human A549 cells after 24 hrs by Western blot analysis; type: cell-based
# [14] = test system: A549; assay: Inhibition of Rsk90 phosphorylation in human A549 cells after 24 hrs by Western blot analysis; type: cell-based
# [15] = test system: A549; assay: Inhibition of CREB phosphorylation in human A549 cells after 24 hrs by Western blot analysis; type: cell-based
# [16] = test system: A549; assay: Effect on total ERK1/2 levels in human A549 cells by Western blot analysis; type: functional, cell-based
# [17] = biological target: T1, Mitogen-activated protein kinase; ERK1/ERK2 (Homo sapiens); assay: Inhibition of PMA-stimulated ERK1/2 phosphorylation in human A549 cells after 24 hrs by Western blot analysis; type: cell-based
# [18] = test system: A549; assay: Effect on total ERK1/2 levels in human A549 cells by Western blot analysis in presence of PMA; type: functional, cell-based
# [19] = test system: A549; assay: Effect on ERK1 gene expression in human A549 cells at 5 to 25 uM after 24 hrs by RT-PCR analysis; type: functional, cell-based
# [20] = test system: A549; assay: Effect on CREB1 gene expression in human A549 cells at 5 to 25 uM after 24 hrs by RT-PCR analysis; type: functional, cell-based
# [21] = test system: A549; assay: Effect on p27/Kip protein expression in human A549 cells at 1 to 100 uM after 24 hrs by Western blot analysis; type: functional, cell-based
# [22] = test system: A549; assay: Effect on p21Waf1/Cip1 protein expression in human A549 cells at 1 to 100 uM after 24 hrs by Western blot analysis; type: functional, cell-based
# [23] = test system: A549; assay: Effect on cyclinD1 protein expression in human A549 cells at 1 to 100 uM after 24 hrs by Western blot analysis; type: functional, cell-based
# [24] = test system: A549; assay: Cell cycle arrest in human A549 cells assessed as accumulation at G0/G1 phase at 10 uM after 24 hrs by acridine orange staining-based flow cytometry (Rvb =44.85 +/- 0.866 %); type: functional
# [25] = test system: A549; assay: Cell cycle arrest in human A549 cells assessed as accumulation at G0/G1 phase at 25 uM after 24 hrs by acridine orange staining-based flow cytometry (Rvb =44.85 +/- 0.866 %); type: functional
# [26] = test system: A549; assay: Cell cycle arrest in human A549 cells assessed as accumulation at G0/G1 phase at 50 uM after 24 hrs by acridine orange staining-based flow cytometry (Rvb =44.85 +/- 0.866 %); type: functional
# [27] = test system: A549; assay: Cell cycle arrest in human A549 cells assessed as accumulation at S phase at 10 uM after 24 hrs by acridine orange staining-based flow cytometry (Rvb =26.89 +/- 2.997 %); type: functional
# [28] = test system: A549; assay: Cell cycle arrest in human A549 cells assessed as accumulation at S phase at 25 uM after 24 hrs by acridine orange staining-based flow cytometry (Rvb =26.89 +/- 2.997 %); type: functional
# [29] = test system: A549; assay: Cell cycle arrest in human A549 cells assessed as accumulation at S phase at 50 uM after 24 hrs by acridine orange staining-based flow cytometry (Rvb =26.89 +/- 2.997 %); type: functional
# [30] = test system: A549; assay: Cell cycle arrest in human A549 cells after 24 hrs by acridine orange staining-based flow cytometry; type: functional
# [31] = test system: A549; assay: Cell cycle arrest in human A549 cells assessed as accumulation at G2/M phase at 10 uM after 24 hrs by acridine orange staining-based flow cytometry (Rvb =16.66 +/- 0.622 %); type: functional
# [32] = test system: A549; assay: Cell cycle arrest in human A549 cells assessed as accumulation at G2/M phase at 25 uM after 24 hrs by acridine orange staining-based flow cytometry (Rvb =16.66 +/- 0.622 %); type: functional
# [33] = test system: A549; assay: Cell cycle arrest in human A549 cells assessed as accumulation at G2/M phase at 50 uM after 24 hrs by acridine orange staining-based flow cytometry (Rvb =16.66 +/- 0.622 %); type: functional
# T1 sequence (P27361 whole entry, looked up): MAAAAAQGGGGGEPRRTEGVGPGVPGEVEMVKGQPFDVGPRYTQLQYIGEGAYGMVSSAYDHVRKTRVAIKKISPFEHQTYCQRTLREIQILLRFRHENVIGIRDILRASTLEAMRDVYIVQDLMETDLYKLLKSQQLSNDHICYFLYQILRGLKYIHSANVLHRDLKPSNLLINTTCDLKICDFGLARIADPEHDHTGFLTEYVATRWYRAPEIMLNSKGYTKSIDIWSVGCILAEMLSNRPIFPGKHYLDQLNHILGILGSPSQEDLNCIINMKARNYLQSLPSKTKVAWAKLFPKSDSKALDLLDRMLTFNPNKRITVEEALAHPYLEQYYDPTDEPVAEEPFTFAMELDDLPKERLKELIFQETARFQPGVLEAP
# T1 sequence (P28482 whole entry, looked up): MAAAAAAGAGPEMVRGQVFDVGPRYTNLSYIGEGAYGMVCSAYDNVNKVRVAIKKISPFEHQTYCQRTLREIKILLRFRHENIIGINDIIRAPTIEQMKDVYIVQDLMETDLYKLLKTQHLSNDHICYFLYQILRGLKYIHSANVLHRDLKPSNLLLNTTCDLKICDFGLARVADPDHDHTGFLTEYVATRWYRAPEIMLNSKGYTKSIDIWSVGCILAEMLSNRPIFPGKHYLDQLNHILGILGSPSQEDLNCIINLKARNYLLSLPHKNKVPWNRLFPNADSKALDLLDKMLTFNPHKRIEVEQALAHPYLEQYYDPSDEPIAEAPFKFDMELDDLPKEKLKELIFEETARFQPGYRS
# Chain of Dual specificity mitogen-activated protein kinase kinase; MEK1/2 (Homo sapiens) (P36507 whole entry, looked up): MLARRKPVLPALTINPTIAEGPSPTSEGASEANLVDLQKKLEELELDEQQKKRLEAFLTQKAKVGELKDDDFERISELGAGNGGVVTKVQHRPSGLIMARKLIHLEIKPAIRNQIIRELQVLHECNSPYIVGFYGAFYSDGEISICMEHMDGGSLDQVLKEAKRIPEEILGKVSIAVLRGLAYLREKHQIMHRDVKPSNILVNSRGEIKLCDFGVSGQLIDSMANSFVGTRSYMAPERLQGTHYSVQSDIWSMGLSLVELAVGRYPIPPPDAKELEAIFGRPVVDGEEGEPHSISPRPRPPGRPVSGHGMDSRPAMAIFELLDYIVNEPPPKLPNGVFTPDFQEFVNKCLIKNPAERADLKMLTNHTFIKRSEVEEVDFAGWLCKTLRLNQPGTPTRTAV
# Chain of Dual specificity mitogen-activated protein kinase kinase; MEK1/2 (Homo sapiens) (Q02750 whole entry, looked up): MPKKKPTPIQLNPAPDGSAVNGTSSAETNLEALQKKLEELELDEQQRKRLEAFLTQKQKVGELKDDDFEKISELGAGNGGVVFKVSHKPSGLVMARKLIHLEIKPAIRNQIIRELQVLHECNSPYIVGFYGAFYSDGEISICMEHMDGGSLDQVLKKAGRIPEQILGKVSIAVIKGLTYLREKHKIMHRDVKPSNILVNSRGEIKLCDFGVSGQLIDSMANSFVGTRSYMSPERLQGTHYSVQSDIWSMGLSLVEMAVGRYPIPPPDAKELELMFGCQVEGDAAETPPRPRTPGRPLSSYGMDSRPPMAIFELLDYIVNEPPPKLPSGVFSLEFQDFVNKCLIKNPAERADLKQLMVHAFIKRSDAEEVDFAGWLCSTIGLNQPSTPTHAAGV
compound,measurement,setting,value
Oc1ccc(-c2nnc(Nc3ccc(F)cc3)s2)c(O)c1,Activity,[1],Active
same,Activity,[2],Active
same,Activity,[3],Active
same,Activity,[4],Active
same,Activity,[5],Active
same,Activity,[6],Active
same,Activity,[7],Non-toxic
same,Activity,[8],Non-toxic
same,Activity,[9],Non-toxic
same,inhibition,[10],tde
same,inhibition,[11],Dose-dependent effect
same,TIME,[12],24 h
same,inhibition,[13],Active
same,inhibition,[14],Active
same,inhibition,[15],Active
same,Activity,[16],inactive
same,inhibition,[17],Dose-dependent effect
same,Activity,[18],inactive
same,Activity,[19],inactive
same,Activity,[20],inactive
same,Activity,[21],inactive
same,Activity,[22],inactive
same,Activity,[23],inactive
same,Activity,[24],43.4%
same,Activity,[25],46.97%
same,Activity,[26],57.4%
same,Activity,[27],22.62%
same,Activity,[28],19.84%
same,Activity,[29],11.31%
same,Activity,[30],Dose-dependent effect
same,Activity,[31],12.89%
same,Activity,[32],11.03%
same,Activity,[33],5.403%
